# What was measured:
# HDAC1 = molecular target: T1, HDAC1 (Homo sapiens, UniProt Q13547); experiment: HDAC-Glo I/II assay, HDAC1; format: biochemical; settings: recombinant human HDAC1, HDAC-Glo; read-out: pIC50 HDAC1 Glo (converted)
# T1 construct: purchased BPS Bioscience 50051
# HDAC2 = molecular target: T2, HDAC2 (Homo sapiens, UniProt Q92769); experiment: HDAC-Glo I/II assay, HDAC2; format: biochemical; settings: recombinant human HDAC2, HDAC-Glo; read-out: pIC50 HDAC2 Glo (converted)
# T2 construct: purchased BPS Bioscience 50002
# T2 sequence (Q92769 whole entry): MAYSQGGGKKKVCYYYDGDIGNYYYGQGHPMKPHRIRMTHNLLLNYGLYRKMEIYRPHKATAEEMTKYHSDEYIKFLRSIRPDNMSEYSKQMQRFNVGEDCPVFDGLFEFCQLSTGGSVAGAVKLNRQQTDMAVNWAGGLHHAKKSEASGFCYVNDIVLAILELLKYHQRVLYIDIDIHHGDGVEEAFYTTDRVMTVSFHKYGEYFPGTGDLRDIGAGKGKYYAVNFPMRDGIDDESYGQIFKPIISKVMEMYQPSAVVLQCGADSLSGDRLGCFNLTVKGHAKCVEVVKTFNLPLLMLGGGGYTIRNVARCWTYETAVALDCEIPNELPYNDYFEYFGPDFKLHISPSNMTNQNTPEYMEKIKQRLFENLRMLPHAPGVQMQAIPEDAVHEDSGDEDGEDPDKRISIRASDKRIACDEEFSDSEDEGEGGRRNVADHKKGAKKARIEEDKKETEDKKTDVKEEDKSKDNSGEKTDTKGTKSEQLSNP
# HDAC3/NcoR2 complex = molecular target: T3, HDAC3/NcoR2 complex (Homo sapiens, UniProt O15379); experiment: HDAC-Glo I/II assay, HDAC3/NcoR2 complex; format: biochemical; settings: recombinant human HDAC3/NcoR2 complex, read-out: pIC50 HDAC3 Glo (converted)
# T3 construct: purchased BPS Bioscience 50003
# T3 sequence (O15379 whole entry): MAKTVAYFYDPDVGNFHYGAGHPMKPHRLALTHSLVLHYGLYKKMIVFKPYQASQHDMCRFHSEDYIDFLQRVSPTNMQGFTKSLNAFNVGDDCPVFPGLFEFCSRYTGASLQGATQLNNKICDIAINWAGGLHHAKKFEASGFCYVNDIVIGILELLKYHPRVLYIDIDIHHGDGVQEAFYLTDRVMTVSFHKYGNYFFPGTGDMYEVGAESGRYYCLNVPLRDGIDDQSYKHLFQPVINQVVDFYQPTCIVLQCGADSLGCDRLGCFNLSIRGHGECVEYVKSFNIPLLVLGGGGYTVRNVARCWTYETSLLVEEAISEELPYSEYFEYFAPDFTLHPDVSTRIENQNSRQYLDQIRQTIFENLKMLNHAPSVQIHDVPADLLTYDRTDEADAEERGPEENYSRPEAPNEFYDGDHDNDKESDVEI
# T3 sequence (Q9Y618 395-489 partner limits assumed): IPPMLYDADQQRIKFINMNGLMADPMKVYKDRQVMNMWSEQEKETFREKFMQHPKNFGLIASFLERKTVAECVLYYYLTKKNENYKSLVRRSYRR
# HDAC6 = molecular target: T4, HDAC6 (Homo sapiens, UniProt Q9UBN7); experiment: HDAC-Glo I/II assay, HDAC6; format: biochemical; settings: recombinant human HDAC6, HDAC-Glo; read-out: pIC50 HDAC6 Glo (converted)
# T4 construct: purchased BPS Bioscience 50006
# T4 sequence (Q9UBN7 1-1215): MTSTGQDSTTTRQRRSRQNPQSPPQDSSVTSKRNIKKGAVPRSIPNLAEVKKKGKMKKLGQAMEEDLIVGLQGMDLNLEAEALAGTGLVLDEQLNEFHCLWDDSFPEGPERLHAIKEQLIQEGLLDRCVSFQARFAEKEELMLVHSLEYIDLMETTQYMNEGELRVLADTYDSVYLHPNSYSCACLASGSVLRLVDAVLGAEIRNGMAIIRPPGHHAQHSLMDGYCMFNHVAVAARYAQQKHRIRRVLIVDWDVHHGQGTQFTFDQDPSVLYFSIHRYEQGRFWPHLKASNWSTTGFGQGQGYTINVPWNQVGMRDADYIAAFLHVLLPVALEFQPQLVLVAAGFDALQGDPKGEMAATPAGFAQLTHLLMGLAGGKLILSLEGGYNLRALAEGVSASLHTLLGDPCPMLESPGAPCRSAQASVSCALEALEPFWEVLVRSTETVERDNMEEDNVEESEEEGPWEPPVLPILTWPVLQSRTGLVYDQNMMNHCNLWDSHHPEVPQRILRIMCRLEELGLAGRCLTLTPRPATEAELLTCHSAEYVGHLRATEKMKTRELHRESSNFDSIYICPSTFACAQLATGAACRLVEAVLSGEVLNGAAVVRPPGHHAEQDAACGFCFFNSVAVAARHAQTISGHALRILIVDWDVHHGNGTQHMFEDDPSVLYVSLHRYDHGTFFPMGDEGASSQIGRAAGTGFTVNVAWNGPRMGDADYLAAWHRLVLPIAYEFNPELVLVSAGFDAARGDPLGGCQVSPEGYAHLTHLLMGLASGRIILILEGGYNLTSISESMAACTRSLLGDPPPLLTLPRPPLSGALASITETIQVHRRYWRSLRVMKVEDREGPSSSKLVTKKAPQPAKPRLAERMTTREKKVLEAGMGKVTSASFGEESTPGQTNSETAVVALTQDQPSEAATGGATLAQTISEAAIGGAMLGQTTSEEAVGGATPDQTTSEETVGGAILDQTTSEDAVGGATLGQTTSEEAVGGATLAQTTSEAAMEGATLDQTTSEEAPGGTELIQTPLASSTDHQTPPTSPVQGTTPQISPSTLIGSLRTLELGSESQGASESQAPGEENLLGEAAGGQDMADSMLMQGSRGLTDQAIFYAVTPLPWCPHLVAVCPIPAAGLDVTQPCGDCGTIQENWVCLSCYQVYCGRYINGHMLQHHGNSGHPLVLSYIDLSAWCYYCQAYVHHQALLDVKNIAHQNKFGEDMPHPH
# TwinStrep-GST-HDAC10 = molecular target: T5, TwinStrep-GST-HDAC10 (Homo sapiens, UniProt Q969S8); experiment: HDAC10 TR-FRET assay (Tubastatin-AF647-Tracer displacement); format: binding; settings: TR-FRET, 60 min at rt; read-out: pIC50 HDAC10 FRET (converted)
# T5 construct: made in house; host or cells: Sf21 insect cells (baculovirus, pFastBac1)
# T5 sequence (Q969S8 1-669): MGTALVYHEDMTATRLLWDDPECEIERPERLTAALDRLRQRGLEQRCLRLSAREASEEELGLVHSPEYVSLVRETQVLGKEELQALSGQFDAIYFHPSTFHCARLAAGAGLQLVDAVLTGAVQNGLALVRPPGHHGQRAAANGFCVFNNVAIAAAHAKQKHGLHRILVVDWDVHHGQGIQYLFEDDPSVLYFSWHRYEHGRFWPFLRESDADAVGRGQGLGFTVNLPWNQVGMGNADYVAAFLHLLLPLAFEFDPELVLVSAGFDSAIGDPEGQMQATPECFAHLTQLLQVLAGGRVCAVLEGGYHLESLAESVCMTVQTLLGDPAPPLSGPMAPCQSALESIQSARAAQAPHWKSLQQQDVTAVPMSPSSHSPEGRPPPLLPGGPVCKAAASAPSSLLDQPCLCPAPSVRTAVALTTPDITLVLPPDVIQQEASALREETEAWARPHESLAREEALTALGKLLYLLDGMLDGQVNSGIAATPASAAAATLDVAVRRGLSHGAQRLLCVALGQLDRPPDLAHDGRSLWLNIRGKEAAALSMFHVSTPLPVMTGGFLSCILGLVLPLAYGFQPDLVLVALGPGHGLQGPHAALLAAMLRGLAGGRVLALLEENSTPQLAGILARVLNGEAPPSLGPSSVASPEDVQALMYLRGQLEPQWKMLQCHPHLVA
# HDAC8 = molecular target: T6, HDAC8 (Homo sapiens, UniProt Q9BY41); experiment: HDAC-Glo I/II assay, HDAC8; format: biochemical; parameters: purchased BPS Bioscience 50008; settings: recombinant human HDAC8, HDAC-Glo; read-out: pIC50 HDAC8 Glo (converted)
# T6 sequence (Q9BY41 1-377): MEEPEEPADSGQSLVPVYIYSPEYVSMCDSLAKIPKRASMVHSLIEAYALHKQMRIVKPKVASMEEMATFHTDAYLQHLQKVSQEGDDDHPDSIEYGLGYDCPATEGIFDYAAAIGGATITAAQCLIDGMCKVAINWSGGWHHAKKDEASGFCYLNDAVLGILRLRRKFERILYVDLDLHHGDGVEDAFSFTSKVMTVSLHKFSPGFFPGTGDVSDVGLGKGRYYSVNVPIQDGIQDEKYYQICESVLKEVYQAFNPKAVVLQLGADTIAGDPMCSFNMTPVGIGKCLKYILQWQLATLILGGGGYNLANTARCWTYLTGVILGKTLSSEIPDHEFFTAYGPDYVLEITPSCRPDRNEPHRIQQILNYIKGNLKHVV
# [1] = molecular target: T7, HDAC6 (2nd catalytic domain)-nanoluciferase fusion in HeLa cells (Homo sapiens, UniProt Q9UBN7); experiment: BRET intracellular target engagement assay, HDAC6
# T7 sequence (Q9UBN7 482-800 limits assumed): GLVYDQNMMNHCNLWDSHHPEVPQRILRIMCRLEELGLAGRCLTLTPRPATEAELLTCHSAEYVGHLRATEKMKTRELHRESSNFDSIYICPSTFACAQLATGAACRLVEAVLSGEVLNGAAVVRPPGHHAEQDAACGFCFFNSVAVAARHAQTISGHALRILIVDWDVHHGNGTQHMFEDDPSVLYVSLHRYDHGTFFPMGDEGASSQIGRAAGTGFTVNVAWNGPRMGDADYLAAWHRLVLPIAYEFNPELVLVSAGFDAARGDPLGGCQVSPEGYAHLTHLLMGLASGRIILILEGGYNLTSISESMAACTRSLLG
# [2] = molecular target: T8, HDAC10-nanoluciferase fusion in HeLa cells (Homo sapiens, UniProt Q969S8); experiment: BRET intracellular target engagement assay, HDAC10; settings: for HDAC10/6 fold selectivity (BRET): HDAC10 over HDAC6, from BRET
# T8 sequence (Q969S8 1-669): T5 sequence (Q969S8 1-669)
# [3] = Stability on exposure to air (observation); format: physicochemical; settings: especially in solution
# [4] = Solubility in water (observation during purification); format: physicochemical
# T1 sequence (Q13547 whole entry): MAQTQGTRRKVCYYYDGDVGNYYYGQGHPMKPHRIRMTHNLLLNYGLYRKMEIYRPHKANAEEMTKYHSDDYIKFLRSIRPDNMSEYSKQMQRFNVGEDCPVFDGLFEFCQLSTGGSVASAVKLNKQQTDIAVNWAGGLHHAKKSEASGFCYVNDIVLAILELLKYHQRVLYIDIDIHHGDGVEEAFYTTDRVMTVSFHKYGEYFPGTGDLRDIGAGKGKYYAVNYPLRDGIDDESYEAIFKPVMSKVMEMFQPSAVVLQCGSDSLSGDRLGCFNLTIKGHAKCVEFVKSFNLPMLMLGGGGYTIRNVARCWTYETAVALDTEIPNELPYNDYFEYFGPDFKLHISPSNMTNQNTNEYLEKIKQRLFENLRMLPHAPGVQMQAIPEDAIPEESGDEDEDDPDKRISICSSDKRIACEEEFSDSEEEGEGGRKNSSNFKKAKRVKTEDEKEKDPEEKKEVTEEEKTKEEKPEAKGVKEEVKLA
Compound,IC50 (HDAC1) [µM],IC50 (HDAC2) [µM],IC50 (HDAC3/NcoR2 complex) [µM],IC50 (HDAC6) [µM],IC50 (TwinStrep-GST-HDAC10) [µM],IC50 (HDAC8) [µM],IC50 [1] [µM],IC50 [2] [µM],HDAC10/6 fold selectivity (BRET) [2] [fold],stability when exposed to air [3],solubility in water [4]
"CC(C)N(CCCC(=O)NO)CCC(=O)Nc1ccccc1 [DKFZ-715, 4-(Isopropyl(3-oxo-3-(phenylamino)propyl)amino)-N-hydroxybutanamide]",398,> 200,< 200,12.6,0.631,5.01,> 39.8,2,>21,,
"COc1ccc(C(=O)NCCN(C)CCCC(=O)NO)c2ccccc12 [DKFZ-774, N-(2-((4-(Hydroxyamino)-4-oxobutyl)(methyl)amino)ethyl)-4-methoxy-1-naphthamide]",6.31,12.6,> 100,2.51,0.00316,1.26,~12.6,0.0316,398,,
"CN(CCNC(=O)CS)CCNC(=O)c1ccccc1 [DKFZ-825, N-(2-((2-(2-Mercaptoacetamido)ethyl)(methyl)amino)ethyl)benzamide]",12.6,12.6,> 100,3.98,0.0126,> 100,,,,form the disulfide when exposed to air,
"C[N+](C)(CCCC(=O)[N-]O)CCNC(=O)c1ccccc1 [DKFZ-777, (4-((2-Benzamidoethyl)dimethylammonio)butanoyl)(hydroxy)amide]",> 100,> 100,> 100,> 100,0.398,> 100,> 39.8,31.6,>1,,poorly soluble in water
"CN(CCCC(=O)NO)CCNC(=O)c1cccc2cn[nH]c12 [DKFZ-757, N-(2-((4-(Hydroxyamino)-4-oxobutyl)(methyl)amino)ethyl)-1H-indazole-7-carboxamide]",10,> 100,> 100,6.31,0.00794,~25.1,25.1,0.0631,423,,
"CCCN(CCCC(=O)NO)CCC(=O)Nc1ccccc1 [DKFZ-716, 4-(Propyl(3-oxo-3-(phenylamino)propyl)amino)-N-hydroxybutanamide]",79.4,> 200,~200,5.01,0.316,7.94,> 39.8,1,~366,,
"O=C(CCCN(CCC(=O)Nc1ccccc1)Cc1ccccc1)NO [DKFZ-718, 4-(Benzyl(3-oxo-3-(phenylamino)propyl)amino)-N-hydroxybutanamide]",25.1,~126,~100,1,2,2.51,10,0.501,25,,
"O=C(CC1CN(CCC(=O)Nc2ccccc2)C1)NO [DKFZ-770, 3-(3-(2-(Hydroxyamino)-2-oxoethyl)azetidin-1-yl)-N-phenylpropanamide]",50.1,79.4,> 100,6.31,0.158,20,> 39.8,2,>20,,
"CN(CCCC(=O)NO)CCNC(=O)c1ccc(/C(N)=N/O)cc1 [DKFZ-750, N-(2-((4-(Hydroxyamino)-4-oxobutyl)(methyl)amino)ethyl)-4-(M-hydroxycarbamimidoyl)benzamide]",15.8,> 100,> 100,6.31,0.02,~25.1,> 39.8,2,>21,,

# From US20220151962A1, “NOVEL INHIBITORS OF HISTONE DEACETYLASE 10” (Deutsches Krebsforschungszentrum, priority 2019, published 2022)
